Measured values from patent US7378246B2, “Methods and compositions for regulating adipogenesis” (The Board of Trustees of the Leland Stanford Junior …, priority 2002, dated 2008).
Counter-ions that a name gives are not always drawn.

Legend:
Format in all cases: cell-based
[1] = test system: Mouse embryonic fibroblast (MEF) cells; test: Adipocyte differentiation of MEFs, Oil Red O staining; conditions: for adipogenesis of MEF cells: DM with 5 μM rosiglitazone, CoCl2 25 μM or DFO 25 μM, stained Day 6 (FIG. 1C); for adipocyte differentiation of control-treated MEF cells: control adenovirus, same conditions as cre-treated MEFs (FIG. 2); for adipocyte differentiation of HIF-1α deficient MEF cells: cre-treated MEFs, CoCl2 up to 50 μM, DFO up to 25 μM, entire course (FIG. 2)
Description: MEFs were induced to differentiate 2 days after confluence (day 0) with DM supplemented with 5 μM rosiglitazone (Alexander et al., 1998; Lehmann et al., 1995). The medium was replaced on Day 3 with DMEM plus 10% FBS, 1 μg/ml INS and 5 μM rosiglitazone, and was then changed every other day. To remove the HIF-1α gene, subconfluent culture of MEFs with HIF-1α alleles flanked by loxP sites were treated with adenovirus containing cre recombinase or control adenovirus at the multiplicity of infection (MOI) of 50 as previously described (Seagroves et al., 2001). The treated MEF cells were grown to confluence for 2 days before they were induced to differentiate as above.
(§1) To evaluate the effects of hypoxia on adipogenesis, cells were maintained at 20% O2 in standard incubator, 2% O2 in standard incubator or 0.01% O2 in an anaerobic chamber immediately following treatment with DM. Alternatively, CoCl2 or DFO was added to DM at indicated concentrations either during the initial stage of stimulation or for the entire course of differentiation.
(§2) For visualization of differentiated adipocytes, cells were washed with phosphate-buffered saline (PBS) and stained in 60% of the Oil Red O stock solution (0.5 g Oil Red O in 100 ml of isopropanol) for 30 min at 37° C. Cells were briefly washed in 60% isopropanol and then rinsed in distilled water for microscopic observation and photography.

[2] = test system: PPARγ2; test: PPARγ2 mRNA expression in L1 cells, Northern blotting; conditions: for PPARγ2 expression in L1 cells: 50 μM CoCl2 or 100 μM DFO during induction (FIG. 3C); for PPARγ2 expression in L1 cells with ectopic expression: retroviral infection, RNA on Day 2 after IDM stimulation (FIG. 7B)
Description: Total cellular RNA was isolated with Trizol reagent (Life Technologies). The following plasmids were used for cDNA template preparations by restriction digest: MSV-C/EBPβ and MSV-C/EBPδ (S. L. McKnight, Univ. Texas Southwestern Medical Center, Dallas, Tex.), pSVsport-PPARγ2 (B. M. Spiegelman), pBS-Stra13 (P. Chambon, INSERM, Strasbourg, France). Hybridization was carried out at 65° C. for 6 to 12 hr. The radioactive blot was visualized on Storm 860 PhosphoImager (Molecular Dynamics, Sunnyvale, Calif.).

[3] = test system: 3T3-L1 preadipocytes; test: Adipocyte differentiation of 3T3-L1 (L1) cells, Oil Red O staining; conditions: for differentiation of C/EBPβ-expressing L1 cells: agent present for first 2 days of adipogenic induction, 50 μM CoCl2 or 100 μM DFO (FIG. 4B); for differentiation and/or fat accumulation of C/EBPβ-expressing L1 cells: continuous presence (6 days), 50 μM CoCl2 or 100 μM DFO, 20% O2 (FIG. 4B); for differentiation of PPARγ2-expressing L1 cells: stimulated by rosiglitazone, 50 μM CoCl2 or 100 μM DFO for 6 days (FIG. 4C); for adipocyte differentiation of L1 cells on retroviral overexpression: retroviral infection, vs vector control pLXSN, stained Day 5 (FIG. 7A)
Description: Based on previously described procedure (Wu et al., 1996), L1 cells were maintained in GM for 2 days after confluence. The confluent cells were treated (day 0) with differentiation medium (DM) containing 10% FBS, 10 μg/ml INS, 1 μM DEX and 0.5 mM MIX in DMEM for 2 days. Cells were then maintained in DMEM containing 10% FBS and 1 μg/ml INS, and the medium was replaced every other day.
as §1, §2
Retroviruses were produced using the phoenix cell system (Baker et al., 1992; Pear et al., 1993). L1 cells at 30-50% confluence were retrovirally infected 2-3 times with 8 μg/ml Polybrene by centrifugation at 1800-2000 rpm for 1 hr, followed by overnight incubation at 32° C. For generation of stable C/EBPβ-expressing cells, L1 cells were infected with pBABEpuro or pBABEpuro-C/EBPβ (S. R. Farmer, Boston University, Boston, Mass.), followed by selection with 1 μg/ml of puromycin (Sigma). The stable cells were grown to confluence and induced to differentiate as described above. For transient infection with pBABEpuro, pBABEpuor-PPARγ2 (B. M. Spiegelman, Harvard University, Boston, Mass.), pLXSN/HA-DEC1, pLXSN-DEC1 and pLXSN-N1, L1 cells were spin-infected and induced to differentiate as described above.

[4] = test system: PPARγ2 promoter; test: PPARγ2 promoter luciferase reporter assay in NIH-3T3 cells; conditions: for repression of PPARγ2 promoter activity by DEC1 fragments: 0.6-kb PPARγ2 promoter luciferase, co-transfected DEC1 fragments, 0.3 μg DNA each (FIG. 6A)
Description: The luciferase reporter construct pX2) under the control of the −603 to +62 PPARγ2 proximal promoter fragment (PPAR) or other deletional subclones was used as described (Tong et al., 2000). NIH-3T3 cells were transiently co-transfected with 0.3 μg each of pXP2 or PPAR and pcDNA3.1His construct expressing a DEC1 fragment using LipofectAmine Plus reagents (Life Technologies). Luciferase activities in cell lysates were measured in triplicates after 40-48 hr of incubation using Monolight 2010 Luminometer (Analytical Luminescence Laboratory, Ann Arbor, Mich.). The luciferase activity is expressed in relation to protein concentrations that vary little from well to well. Alternatively, a Renilla luciferase reporter was co-transfected as a control for transfection efficiency.

[5] = agent for first 2 days of induction with IDM, CoCl2 50 μM, DFO 100 μM, stained Day 6 (FIG. 1B)
[6] = agent in treatment media throughout the course of induction (6 days)

## [Cl][Co][Cl] [CoCl2, Cobalt Chloride]
[1]
  adipogenesis of MEF cells: suppresses adipogenesis
  adipocyte differentiation of control-treated MEF cells: significantly represses differentiation
  adipocyte differentiation of HIF-1α deficient MEF cells: continue to undergo significant adipocyte differentiation
[2]
  PPARγ2 expression in L1 cells: repressed
[3]; [5]
  L1 cell differentiation: sufficient to prevent L1 cell differentiation
[3]; [6]
  L1 cell differentiation: Inhibition of L1 cell differentiation
[3]
  differentiation of C/EBPβ-expressing L1 cells: still able to differentiate into fat-laden adipocytes
  differentiation and/or fat accumulation of C/EBPβ-expressing L1 cells: significantly reducing differentiation and/or fat accumulation
  differentiation of PPARγ2-expressing L1 cells: majority of the PPARγ2-expressing cells differentiate into adipocytes

## HA-DEC1: HA-tagged full-length DEC1 expressed from pLXSN/HA-DEC1
[2]
  PPARγ2 expression in L1 cells with ectopic expression: repressed
[3]
  adipocyte differentiation of L1 cells on retroviral overexpression: nearly complete inhibition of adipocyte differentiation

## DEC1: full-length DEC1 bHLH transcription repressor, expressed from pcDNA3.1-DEC1 or pLXSN-DEC1
[2]
  PPARγ2 expression in L1 cells with ectopic expression: repressed
[4]; 0.6-kb PPARγ2 promoter (−603 to +62) luciferase, compared to the vector control, co-transfection (FIG. 6A)
  repression of PPARγ2 promoter activity: 70%
[4]; 0.6-kb promoter with BsrGI-StuI fragment deleted (FIG. 6B)
  repression of FLΔBrS promoter (BrS deleted): no longer repressed
[3]
  adipocyte differentiation of L1 cells on retroviral overexpression: nearly complete inhibition of adipocyte differentiation

## CN(CCOc1ccc(CC2SC(=O)NC2=O)cc1)c1ccccn1 (centres unmarked) [rosiglitazone]
[1]; IDM supplemented with 5 μM rosiglitazone
  MEF cells that differentiate into adipocytes: 15-20%

## CC(=O)N(O)CCCCCNC(=O)CCC(=O)N(O)CCCCCNC(=O)CCC(=O)N(O)CCCCCN [DFO, deferoxamine mesylate]
[1]
  adipogenesis of MEF cells: suppresses adipogenesis
  adipocyte differentiation of control-treated MEF cells: significantly represses differentiation
  adipocyte differentiation of HIF-1α deficient MEF cells: continue to undergo significant adipocyte differentiation
[2]
  PPARγ2 expression in L1 cells: repressed
[3]; [5]
  L1 cell differentiation: sufficient to prevent L1 cell differentiation
[3]; [6]
  L1 cell differentiation: Inhibition of L1 cell differentiation
[3]
  differentiation of C/EBPβ-expressing L1 cells: still able to differentiate into fat-laden adipocytes
  differentiation and/or fat accumulation of C/EBPβ-expressing L1 cells: significantly reducing differentiation and/or fat accumulation
  differentiation of PPARγ2-expressing L1 cells: majority of the PPARγ2-expressing cells differentiate into adipocytes

B1: C1: C-terminal DEC1 fragment aa121-412 (protein, UniProt O14503 121-412, looked up, fragment)
chain: LQSGLQAGELSGRNVETGQEMFCSGFQTCAREVLQYLAKHENTRDLKSSQLVTHLHRVVSELLQGGTSRKPSDPAPKVMDFKEKPSSPAKGSEGPGKNCVPVIQRTFAHSSGEQSGSDTDTDSGYGGESEKGDLRSEQPCFKSDHGRRFTMGERIGAIKQESEEPPTKKNRMQLSDDEGHFTSSDLISSPFLGPHPHQPPFCLPFYLIPPSATAYLPMLEKCWYPTSVPVLYPGLNASAAALSSFMNPDKISAPLLMPQRLPSPLPAHPSVDSSVLLQALKPIPPLNLETKD
[4]
  repression of PPARγ2 promoter activity by DEC1 fragments: do not inhibit PPARγ2 promoter activity

B2: C2: C-terminal DEC1 fragment aa201-412 (protein, UniProt O14503 201-412, looked up, fragment)
chain: FKEKPSSPAKGSEGPGKNCVPVIQRTFAHSSGEQSGSDTDTDSGYGGESEKGDLRSEQPCFKSDHGRRFTMGERIGAIKQESEEPPTKKNRMQLSDDEGHFTSSDLISSPFLGPHPHQPPFCLPFYLIPPSATAYLPMLEKCWYPTSVPVLYPGLNASAAALSSFMNPDKISAPLLMPQRLPSPLPAHPSVDSSVLLQALKPIPPLNLETKD
[4]
  repression of PPARγ2 promoter activity by DEC1 fragments: do not inhibit PPARγ2 promoter activity

B3: N1: N-terminal DEC1 fragment aa1-141 containing the bHLH domain (protein, UniProt O14503 1-141, looked up, fragment)
chain: MERIPSAQPPPACLPKAPGLEHGDLPGMYPAHMYQVYKSRRGIKRSEDSKETYKLPHRLIEKKRRDRINECIAQLKDLLPEHLKLTTLGHLEKAVVLELTLKHVKALTNLIDQQQQKIIALQSGLQAGELSGRNVETGQEM
[2]
  PPARγ2 expression in L1 cells with ectopic expression: repressed
[3]
  adipocyte differentiation of L1 cells on retroviral overexpression: Significant inhibition
